Common to all, as to format: functional, Homo sapiens
Assay [1] has as its system MCF7. The assay can be described thus: Antiproliferative activity on MCF-7 Cell Growth was determined by measuring [3H]thymidine incorporation at the concentration of 1 uM. For orientation: Uptake of a labelled nucleoside into DNA is a usual measure of proliferation.
In assay [2] the test system is MCF7. Put plainly: Antiproliferative activity on MCF-7 Cell Growth was determined by measuring [3H]thymidine incorporation at the concentration of 0.1 nM.
Assay [3] concerns MCF7. Put plainly: Antiproliferative activity on MCF-7 Cell Growth was determined by measuring [3H]thymidine incorporation at the concentration of 10 nM.

Consider `COc1cc(C)c(/C=C/C(C)=C/C=C/C(C)=C/C(=O)NC2OC(CO)C(O)C(O)C2O)c(C)c1C` (centres undefined), for which the Control is reported as more than 100% with MCF7 [1], more than 50% in the assay with MCF7 [2] and more than 100% in the assay on MCF7 [3].
On to `COc1cc(C)c(/C=C/C(C)=C/C=C/C(C)=C/C(=O)NC2OC(C(=O)O)C(O)C(O)C2O)c(C)c1C` (centres undefined), for which the Control is less than 50% in the assay with MCF7 [1], less than 50% in the assay with MCF7 [2] and more than 50% with MCF7 [3].
Turning to `COc1cc(C)c(/C=C/C(C)=C/C=C/C(C)=C/C(=O)O)c(C)c1C` [ACITRETIN], the Control in the assay with MCF7 [1] was less than 50%; with MCF7 [2] it was more than 50%; in the assay on MCF7 [3] it was more than 50%.

(Values after ChEMBL document CHEMBL1129809, “N-linked glycoside/glucuronide conjugates of retinoids: acitretin” (1997).)
